Data reported in the supplement of paper PMC10307832.

Key:
Assay in all cases: relative viability (nuclei count vs DMSO), 5 days (fraction); higher = more cells survive
Carboplatin + Phenformin = compound: C1CC(C1)(C(=O)O)C(=O)O.[NH2-].[NH2-].[Pt+2] [Carboplatin] + N=C(N)NC(=N)NCCc1ccccc1 [Phenformin] (partner 250 µM)
Method in brief: (§1)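 The day after seeding in 1536-well plates, lung cancer cell lines were treated by pin tool with a single drug, or with a fixed anchor-drug dose together with five library-drug doses (not always all listed) in √10 steps. After 5 days, a combined fix-and-stain solution (final 0.05% Triton X-100, 1% formaldehyde, 1 ug/ml Hoechst) was added. Nuclei counted on 4× images gave relative viability as treated counts over vehicle counts, reported as the median of duplicate plates.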

MLN4924 + Tozasertib = compound: NS(=O)(=O)OC[C@@H]1C[C@@H](n2ccc3c(N[C@H]4CCc5ccccc54)ncnc32)C[C@@H]1O [MLN4924] + Cc1cc(Nc2cc(N3CCN(C)CC3)nc(Sc3ccc(NC(=O)C4CC4)cc3)n2)n[nH]1 [Tozasertib] (partner 0.1 µM)
Method in brief: as §1

GSK126 + Crizotinib = compound: CC[C@H](C)N1C=C(C2=C(C=C(C=C21)C3=CN=C(C=C3)N4CCNCC4)C(=O)NCC5=C(C=C(NC5=O)C)C)C [GSK126] + C[C@@H](Oc1cc(-c2cnn(C3CCNCC3)c2)cnc1N)c1c(Cl)ccc(F)c1Cl [Crizotinib] (partner 1 µM)
Method in brief: as §1

GSK126 + Phenformin = compound: CC[C@H](C)N1C=C(C2=C(C=C(C=C21)C3=CN=C(C=C3)N4CCNCC4)C(=O)NCC5=C(C=C(NC5=O)C)C)C [GSK126] + N=C(N)NC(=N)NCCc1ccccc1 [Phenformin] (partner 250 µM)
Method in brief: as §1

| Cell Line | relative viability (Carboplatin + Phenformin; first compound 0.08 µM) | relative viability (Carboplatin + Phenformin; first compound 0.253 µM) | relative viability (Carboplatin + Phenformin; first compound 0.8 µM) | relative viability (Carboplatin + Phenformin; first compound 2.53 µM) | relative viability (Carboplatin + Phenformin; first compound 8 µM) | relative viability (MLN4924 + Tozasertib; first compound 0.04 µM) | relative viability (MLN4924 + Tozasertib; first compound 0.1265 µM) | relative viability (MLN4924 + Tozasertib; first compound 0.4 µM) | relative viability (MLN4924 + Tozasertib; first compound 1.265 µM) | relative viability (MLN4924 + Tozasertib; first compound 4 µM) | relative viability (GSK126 + Crizotinib; first compound 0.08 µM) | relative viability (GSK126 + Crizotinib; first compound 0.253 µM) | relative viability (GSK126 + Crizotinib; first compound 0.8 µM) | relative viability (GSK126 + Crizotinib; first compound 2.53 µM) | relative viability (GSK126 + Crizotinib; first compound 8 µM) | relative viability (GSK126 + Phenformin; first compound 0.08 µM) | relative viability (GSK126 + Phenformin; first compound 0.253 µM) | relative viability (GSK126 + Phenformin; first compound 0.8 µM) | relative viability (GSK126 + Phenformin; first compound 2.53 µM) | relative viability (GSK126 + Phenformin; first compound 8 µM) |
| --- | --- | --- | --- | --- | --- | --- | --- | --- | --- | --- | --- | --- | --- | --- | --- | --- | --- | --- | --- | --- |
| 201T | 0.482 | 0.447 | 0.441 | 0.444 | 0.432 | 1.07 | 0.737 | 0.697 | 0.301 | 0.319 | 1.1 | 1.06 | 1.03 | 0.93 | 1.09 | 0.478 | 0.46 | 0.443 | 0.437 | 0.387 |
| RERF-LC-KJ | 0.45 | 0.387 | 0.386 | 0.335 | 0.317 | 0.471 | 0.366 | 0.193 | 0.202 | 0.201 | 0.841 | 0.896 | 0.826 | 0.785 | 0.838 | 0.484 | 0.417 | 0.396 | 0.4 | 0.396 |
| ChaGo-K-1 | 0.459 | 0.508 | 0.467 | 0.381 | 0.392 | 0.22 | 0.174 | 0.221 | 0.184 | 0.158 | 0.998 | 1.09 | 0.976 | 1.14 | 1.12 | 0.541 | 0.535 | 0.446 | 0.415 | 0.431 |
| NCI-H1734 | 0.463 | 0.479 | 0.364 | 0.356 | 0.364 | 0.261 | 0.267 | 0.154 | 0.12 | 0.0994 | 0.676 | 0.682 | 0.72 | 0.689 | 0.642 | 0.474 | 0.361 | 0.393 | 0.382 | 0.418 |
| NCI-H1651 | 0.386 | 0.335 | 0.288 | 0.272 | 0.218 | 0.759 | 0.782 | 0.524 | 0.321 | 0.133 | 0.907 | 0.871 | 0.921 | 0.871 | 0.911 | 0.369 | 0.268 | 0.354 | 0.313 | 0.364 |
| PC-14 | 0.807 | 0.592 | 0.53 | 0.383 | 0.274 | 0.592 | 0.569 | 0.605 | 0.177 | 0.0608 | 0.839 | 0.989 | 0.922 | 0.892 | 0.799 | 0.554 | 0.611 | 0.667 | 0.651 | 0.565 |
| NCI-H358 | 0.426 | 0.418 | 0.395 | 0.431 | 0.334 | 0.108 | 0.0992 | 0.0886 | 0.0878 | 0.0989 | 0.733 | 0.577 | 0.667 | 0.608 | 0.395 | 0.465 | 0.306 | 0.379 | 0.402 | 0.299 |
| NCI-H1915 | 0.376 | 0.389 | 0.364 | 0.353 | 0.301 | 0.399 | 0.362 | 0.395 | 0.212 | 0.159 | 1.02 | 0.93 | 0.917 | 0.878 | 0.912 | 0.412 | 0.374 | 0.404 | 0.359 | 0.371 |
| NCI-H1975 | 0.437 | 0.43 | 0.437 | 0.413 | 0.394 | 0.675 | 0.836 | 0.796 | 0.451 | 0.241 | 0.919 | 0.91 | 0.886 | 0.96 | 0.949 | 0.465 | 0.412 | 0.392 | 0.422 | 0.405 |
| BEN | 0.233 | 0.275 | 0.258 | 0.264 | 0.248 | 0.411 | 0.308 | 0.35 | 0.228 | 0.222 | 0.892 | 0.87 | 0.832 | 0.823 | 0.671 | 0.268 | 0.243 | 0.234 | 0.232 | 0.217 |
| EPLC-272H | 0.345 | 0.347 | 0.309 | 0.298 | 0.313 | 0.249 | 0.159 | 0.0675 | 0.132 | 0.133 | 1.07 | 0.843 | 0.909 | 0.719 | 0.789 | 0.318 | 0.264 | 0.361 | 0.34 | 0.301 |
| NCI-H2228 | 0.26 | 0.342 | 0.294 | 0.257 | 0.282 | 0.259 | 0.195 | 0.122 | 0.144 | 0.123 | 0.547 | 0.492 | 0.368 | 0.573 | 0.458 | 0.43 | 0.295 | 0.376 | 0.337 | 0.365 |
| NCI-H661 | 0.249 | 0.286 | 0.259 | 0.276 | 0.301 | 0.343 | 0.329 | 0.359 | 0.338 | 0.375 | 0.924 | 1.04 | 0.967 | 0.787 | 0.787 | 0.277 | 0.264 | 0.691 | 0.269 | 0.244 |
| LU99A | 0.958 | 0.854 | 0.738 | 0.809 | 0.647 | 0.251 | 0.244 | 0.224 | 0.178 | 0.165 | 0.649 | 0.545 | 0.537 | 0.543 | 0.525 | 1.09 | 0.881 | 0.94 | 0.93 | 0.855 |
| NCI-H2405 | 0.455 | 0.379 | 0.369 | 0.38 | 0.383 | 0.802 | 0.644 | 0.484 | 0.231 | 0.266 | 0.947 | 0.753 | 0.816 | 0.817 | 0.814 | 0.394 | 0.384 | 0.365 | 0.328 | 0.304 |
| NCI-H2009 | 0.519 | 0.47 | 0.444 | 0.433 | 0.42 | 0.724 | 0.433 | 0.257 | 0.126 | 0.0886 | 1.08 | 0.982 | 1.06 | 0.968 | 1.06 | 0.506 | 0.467 | 0.442 | 0.43 | 0.359 |
